Data set [1] deals with α-glucosidase. The following applies: 250 μM; ref Vilcacundo et al. [40]; cited from earlier work. An excerpt:
The inhibitory effects of quinoa-derived peptides (YDDER, NIYQIS, and QDQHQKIR) toward α-glucosidase are depicted in Table .

For data set [2], the system named is α-amylase. The following applies: ref Zhou et al. [70]; cited from earlier work. The source says:
As α-amylase plays a significant role in T2DM, this study investigated the inhibitory effects of synthetic quinoa peptides on this enzyme.

Data set [3] relates to angiotensin I converting enzyme. The data set can be described thus: ACE-I inhibitory activity (fluorometric kit CS0002). The data set is classed as biochemical. The note with it: fluorometric kit, 37 °C, mean ± SD, n = 9. Here is the method: ACE-I inhibitory assay was determined by ACE-I activity assay kit (fluorometric, CS0002). This assay is based on the hydrolysis of angiotensin I by ACE to yield angiotensin II. Briefly, all reagents were diluted in the assay buffer, and a total of 50 μL of peptide sample, positive control (captopril PHR1307), and assay buffer (blank) were added to a 96-well black plate. The standard was added at 0, 0.1, 0.2, 0.3, 0.4, 0.5, 0.6, and 0.8 nmol and adjusted to a final volume of 100 μL. […] Finally, fluorescence (λex, 320 nm; λem, 405 nm) was measured in five cycles for 5 min. Linear regressions were determined to calculate the enzymatic activity for each sample per concentration. Thus, one unit was defined as the amount of enzyme that releases 1 nmol of fluorescent substrate in 1 min at 37 °C. Finally, the inhibition (%) of each peptide and positive control was determined using regression analysis of the corresponding dose–response curves.

Data set [4] can be described thus: Fe^2+ chelation assay. The following applies: 125 μM; ferrozine, pH 4.9, 37 °C, 10 min; mean ± SD, n = 9. The procedure:
Fe^2+ chelation assay was measured according to Sanchez-Velazquez et al. with slightly modifications. 25 μL of sample (synthetic peptides, […]) or positive control (EDTA, 0.1 μg/μL) was added to 225 μL of buffer (sodium acetate, 100 mM, pH 4.9), then 15 μL of iron solution (0.1%, w/v) and 9 μL of ferrozine (40 mM) were added to start the reaction. For the blank well, 250 μL of buffer was added to the iron solution and ferrozine. The reaction was incubated 10 min at 37 °C and then read at 562 nm (SPARK-10M, TECAN, Switzerland). Fe^2+ chelating activity was calculated as described previously for copper.

In data set [5] the test system is porcine pancreatic α-amylase (PPA). The data set can be described thus: α-Amylase inhibition. The following applies: CNPG3 substrate, 405 nm, 37 °C, mean ± SD, n = 9. Type of data set: biochemical. Here is the method: α-Amylase inhibition activity was performed using the 3,5-dinitrosalicylic acid (DNS) assay according to Zulfiqar et al. […] Then, 50 μL of substrate (2-chloro-4-nitro-[…] (CNPG3) (2 mM)) was added per well. Finally, absorbance was recorded at 405 nm (SPARK-10M, TECAN, Switzerland) at 37 °C for 10 min in 1-min intervals. The percentage of enzyme inhibition was calculated in relation to 100% enzymatic activity in the negative control (phosphate-buffered saline (PBS) buffer, enzyme, and substrate).

Data set [6] deals with human DPP-IV. The data set can be described thus: DPP-IV inhibitory activity. The following applies: H-Gly-Pro-pNA, 37 °C, mean ± SD, n = 9. The data set is classed as biochemical. Here is the method:
Dipeptidyl peptidase-IV (DPP-IV) inhibitory activity was measured following the method by Vilcacundo et al., with slightly modifications. […] For the negative control 70 μL of Tris Buffer was added. Finally, 100 μL of substrate (H-Gly-Pro-pNA, 100 mM) was added to all wells. The reaction was performed at 37 °C in the microplate reader (BioTek Instruments, Winooski, VT, USA), and the reaction was read at 405 nm for 30 min, with reading intervals of 2 min. Finally, data were plotted and fitted to a logarithmic regression to obtain dose–response curves.

Data set [7] is described as follows: Cu^2+ chelation assay. The note with it: pyrocatechol violet, pH 6.0, 37 °C, 10 min, mean ± SD, n = 9. Here is the method:
Cu^2+ chelation assay was determined according to Sanchez-Velazquez et al., with slight modifications. Briefly, 21 μL of sample (synthetic peptides, […]) or positive control (EDTA, 0.1 μg/μL) was added to 185 μL of buffer (sodium acetate, 50 mM, pH 6.0), and then 15 μL of copper solution (10 μg) and 9 μL of pyrocatechol violet (2 mM) were added for the reaction. For the blank well, 205 μL of buffer was added to the copper and pyrocatechol violet reaction mixture. The reaction was incubated for 10 min at 37 °C and then read at 632 nm (SPARK-10M, TECAN, Switzerland). Cu^2+ chelating activity was calculated as: %Chelatingactivity=Abscontrol−Abssample/Abscontrol×100

For data set [8], the system named is rat intestinal acetone α-glucosidase. The data set can be described thus: α-Glucosidase inhibition. Type of data set: biochemical. Here is the method:
α-Glucosidase inhibition assay was measured following the method of Vilcacundo et al., with slightly modifications. First, 100 μL of sample ([…]), positive control (1 mM acarbose), and/or negative control (Milli-Q-water), were added to 50 μL of rat intestinal acetone α-glucosidase (1 U/mL in 0.1 M, maleate buffer pH 6.9), and the mixture was incubated at 37 °C for 5 min. Then, 50 μL of substrate (2 mM maltose) was added into each tube, which was performed in a Thermomixer (37 °C, 1000 rpm, for 30 min). Finally, the reaction was stopped at 100 °C for 5 min. The glucose concentration in the reaction was measured using GOPOD (glucose oxidase/peroxidase) from Megazyme, with absorbance measured at 560 nm (Gen5 software, version 1.1, BioTek Instruments, Winooski, VT, USA). The percentage of inhibition was calculated relative to the non-inhibited control (negative control).

Data set [9] is described as follows: Oxygen radical absorbance capacity (ORAC) assay. The note with it: AAPH, fluorescein, 37 °C, 150 min. The procedure: Oxygen radical absorbance capacity (ORAC) assay was performed following the method of Carvalho-Oliveira et al. Briefly, 30 μL of peptide (different concentrations 50–1000 μM) or standard (Trolox at 0–160 μM) were placed in a black 96-well plate. The reaction mixture comprised 180 μL of fluorescein (116.9 nM) and 90 μL of 2,2’-azobis(2-amidinopropane) dihydrochloride (AAPH) (40 mM). Finally, the fluorescence was recorded every 2 min for 150 min at excitation and emission wavelengths of 485 and 520 nm, respectively. All reactions were performed at 37 °C. The results were expressed as μmol Trolox equivalent (TE)/μmol of peptide. Quantification and interpretation of the data were done by Gen5 software, version 1.1 (BioTek Instruments, Winooski, VT, USA).

Data set [10] concerns 15-LOX enzyme (soybean lipoxygenase). The data set can be described thus: Lipoxygenase inhibitor screening assay (LOX). The note with it: 31.25 μM; linoleic acid 1 mM, RT, 490 nm. Type of data set: biochemical. Here is the method:
Lipoxygenase inhibitory activity assay (LOX) was determined following the manufacturer’s instructions (#760700). Thus, peptide concentrations (31.25–125 μM) were prepared with the assay buffer and tested in triplicate. First, 10 μL of the peptides at each concentration was mixed with 90 μL of 15-LOX enzyme (soybean lipoxygenase) in a 96-well plate. Then, three wells each contained assay buffer as blank (without enzyme), assay buffer as vehicle (with enzyme), and 15-LOX as positive control. Afterward, 10 μL of linoleic acid (1 mM) (substrate) was added to all wells and shaken for 10 min at RT. Finally, 100 μL of chromogen was added to all wells, and the plate was sealed and shaken for an additional 5 min at RT. The final reaction was measured at 490 nm, and the percentage of inhibition was calculated as. %inhibition=[1−Correctedvaluesofpeptide/Correctedvaluesofvehicle]×100

The conditions of data set [11]: ref Zheng et al. [24]; cited from earlier work. The source says:
(§1) Yudho-Sutopo et al. reported the ACE-I inhibitory activity of four synthetic peptides from pearl garlic (DHSTAVW, KLAKVF, KLSTAASF, and KETPEAHVF). […] According to Yudho-Sutopo et al., the hydrophobic amino acid in the C-terminal and amino acids with a positively charged side-chain amino group, like in DHSTAVW, are determinants in the inhibition of ACE-I. Furthermore, a study by Zheng et al. reported an ACE-I inhibitory peptide – RGQVIYVL – from Chenopo ...

Data set [12] deals with ACE-I. The following applies: Chenopodium quinoa Willd peptide; ref Zheng et al. [24]; read-out: ACE-I inhibition IC50; cited from earlier work.
Excerpt: as §1

A short description of data set [13]: Trolox equivalent antioxidant capacity (TEAC, ABTS radical cation). The following applies: 734 nm, 6 min, mean ± SD, n = 9. Here is the method:
The Trolox equivalent antioxidant capacity (TEAC) analysis was performed as described by Sanchez-Velazquez et al. In order to produce ABTS (2,2’-azino-bis(3-ethylbenzthiazoline-6-sulfonic acid) radical cation (ABTS^ ●+ ), ABTS (7 mM) were mixed with potassium persulfate (2.45 mM) in the dark at room temperature (RT 18–21 °C) for 16 h. […] Finally, the reaction was measured at 0 and 6 min at 734 nm (SPARK-10M, TECAN, Switzerland). The percentage of inhibition was calculated as follows: %TEACinhibition=Abs sample0min−Abs sample6min/Abs sample0min−(Abs blank0min−Abs blank6min/Abs blank0min)×100

Setting [14] is: 300 μM, 2 mM maltose, pH 6.9, 37 °C, mean ± SD, n = 9.
Where [15] appears, read: 400 μM, 2 mM maltose, pH 6.9, 37 °C, mean ± SD, n = 9.
Where [16] appears, read: 500 μM, 2 mM maltose, pH 6.9, 37 °C, mean ± SD, n = 9.

As usually defined, the inhibition is the drop in the measured response relative to a control, in per cent. One may read the IC50 as the point on the concentration scale where inhibition reaches its midpoint.

Marks after values point to notes of the source that are not given here.

As for “IQEGGLT [quinoa-derived peptide reported by Vilcacundo et al]”, the α-glucosidase inhibition in data set [1] is 55.85%.

On to “MMFPH [quinoa-derived peptide reported by Zhou et al]”, for which the α-amylase inhibition entry in [2] is “stronger α-amylase inhibition”.

In the case of “QDQHQKIR [quinoa 11S globulin peptide, custom-synthesized by GenScript, purity 95%]”, the ACE-I inhibition in data set [3] (125 μM) is 6.8 ± 0.56^f %. In addition, the inhibition came out at 9.75 ± 0.21% in [3] (250 μM) and 15.6 ± 0.34% in data set [5] (400 μM). For the same substance, the “Fe^2+ chelating activity” value in [4] is 5.11 ± 1.0%. Further, the α-amylase inhibition in [5] (300 μM) is 18.43 ± 0.33^a %; in data set [5] (500 μM), 15.37 ± 0.35^b %. The figures for the DPP-IV inhibition result in data set [6] (125 μM), in [6] (250 μM) and in data set [6] (500 μM) were “ND (no inhibitory effect was observed at the given concentration)”, “ND (no inhibitory effect was observed at the given concentration)” and 5.26 ± 0.30^c %, respectively. Further, the “Cu^2+ chelating activity” value in [7] (15.62 μM) turned out to be 39.79 ± 1.4%; in [7] (31.25 μM) it was 37.46 ± 0.26%; in data set [7] (62.5 μM), 40.8 ± 0.31%. For the same substance, the α-glucosidase inhibition entry in [8] (setting [14]) is reported as “ND (no inhibitory effect was observed at the given concentration)”; in [8] (setting [15]), “ND (no inhibitory effect was observed at the given concentration)”; in [8] (setting [16]) it was “ND (no inhibitory effect was observed at the given concentration)”; in [8] (any of the tested concentrations (100–500 μM)) it was “did not present any α-glucosidase inhibition”. The ORAC in data set [9] is 0.02 μmol TE/μmol peptide; in [9] (mean ± SD, n = 9) it was 0.02 ± 0.00^c μM TE/μM Peptide. For the same substance, the LOX inhibition in data set [10] is 8.44%.

For the substance RGQVIYVL, the hydrophobic residue content in [11] was 62.50%. For the same substance, in data set [12], the IC50 was 38.2 µM.

With “YDDER [quinoa 11S globulin peptide, custom-synthesized by GenScript, purity 95%]”, the inhibition in data set [3] (125 μM) is 21.1 ± 0.19%. In addition, the ACE-I inhibition in data set [3] (250 μM) is 24.1 ± 0.18^c %; in [3] (500 μM), 24.3 ± 0.15^c %. Besides, the “Fe^2+ chelating activity” value in [4] is listed as 8.8 ± 1.0%. In addition, the results for the “TEAC inhibition (ABTS^●+ inhibition)” value in [13] (250 μM) and in [13] (500 μM) were 7.45 ± 0.19% and 8.7 ± 0.50%, respectively. Also, the α-amylase inhibition in [5] (300 μM) is recorded as 12.20 ± 1.67^c %; in data set [5] (400 μM), 11.43 ± 2.04^c %; in data set [5] (500 μM), 6.66 ± 0.38^d %. Besides, the DPP-IV inhibition entry was “ND (no inhibitory effect was observed at the given concentration)” in data set [6] (125 μM), “ND (no inhibitory effect was observed at the given concentration)” in [6] (250 μM) and 3.44 ± 0.50^d % in data set [6] (500 μM). Further, the α-glucosidase inhibition in data set [8] (setting [14]) is 8.48 ± 0.94^c %; in data set [8] (setting [15]), 8.33 ± 0.94^c %; in data set [8] (setting [16]), 14.86 ± 0.89^a %. Further, the ORAC is reported as 0.24 μmol TE/μmol peptide in data set [9] and 0.24 ± 0.01^b μM TE/μM Peptide in data set [9] (mean ± SD, n = 9). In data set [10], this substance yielded an LOX inhibition of 22.64%.

The values are drawn from article PMC12426930, “Antioxidant, Hypotensive, and Antidiabetic Breakthroughs: Bromelain Hydrolysis Unlocks Quinoa’s Peptide Potential - In Silico and In Vitro Approach” (Journal of Agricultural and Food Chemistry, 2025).
